Data: US11117899B2, “[1,2,4]triazolo[1,5-c]pyrimidine derivative as A2A receptor inhibitor” (MEDSHINE DISCOVERY INC., priority 2017, dated 2021)

Legend:
[1] = molecular target: T1, Human adenosine A2A receptor (Homo sapiens, UniProt P29274); assay: Human adenosine A2A receptor calcium flux assay; assay type: cell-based; details: A2A stable CHO cell strain, antagonist mode against agonist NECA at EC80, FLIPR Fluo-4
T1 construct: host or cells: CHO
Method: Human adenosine A2A receptor calcium flux assay
A2A stable cell strain was constructed by Shanghai WuXi PharmaTech, and the host cell was CHO.
Fluo-4 Direct Kit (Invitrogen, Cat. No. F10471). After the fluorescent detection reagent (specifically binding to calcium ions and causing an increase in fluorescence signal) in the kit was incubated with the cells for a suitable period of time, the compound was added to stimulate the cells to cause changes in intracellular calcium flux, thereby causing changes in the fluorescent signal, which can reflect the strength of the agonistic or inhibitory activity of the compound.
F12+10% fetal bovine serum+geneticin 300 ug/ml+blasticidin 2 ug/ml Compound dilution buffer:
Hanks Balanced Salt Buffer (Invitrogen)+20 mM HEPES, configured before each use
The test compounds were dissolved in DMSO to prepare 10 mM stock solutions. The test compounds were diluted to 0.2 mM with DMSO, and the reference compound CGS-15943 was diluted to 0.015 mM with DMSO. Next, 10 points of three-fold serial dilutions were made with ECHO. 900 nl was transferred to the compound plate (Greiner-781280), and 30 ul of compound dilution buffer was added. The final starting concentration of the test compounds was 1 uM and CGS-15943 was 0.075 uM.
Cryopreserved A2A cells were resuscitated, and then resuspended in culture medium to 1×10^6 cells/ml. The suspension was seeded into 384-well polylysine-coated cell plates (Greiner-781946) at 20 μl/well and incubated overnight in a 5% CO2 incubator at 37° C.
The cell plate prepared the day before was taken out from the incubator, and 20 ul of 2× Fluo-4 Direct™ buffer was added to each well. The plate was incubated for 50 minutes in a 5% CO2 incubator at 37° C. and allowed to stand at room temperature for 10 minutes.
Dilution of agonist NECA: 10 points of three-fold serial dilutions were made with Echo for NECA from a starting concentration of 0.15 mM. 900 nL was then transferred to the corresponding compound plate; and then 30 μl of compound dilution buffer was added to the corresponding compound plate. The final starting concentration was 750 nM.
FLIPR instrument software was run. According to the programmed procedure, 10 ul of compound dilution buffer was added to the cell plate and the fluorescence signal was read. 10 ul of the agonist reference compound at the indicated concentration was then added to the cell plate and the fluorescent signal was read. After reading, the data was exported by the “Max-Min”, “Read 90 to Maximum allowed” method in the software, and the EC80 of the A2A cell line was calculated. The agonist was prepared at a concentration of 6× EC80. A 6× EC80 concentration of a reference compound agonist of the corresponding cells was prepared with a buffer solution, and added at 30 ul/well to the corresponding compound plate for use.
FLIPR instrument software was run. According to the programmed procedure, 10 μl of the test compounds and reference compound at an indicated concentration was added to the cell plate and the fluorescence signal was read. 10 ul of the reference compound agonist at a concentration of 6× EC80 was then added to the cell plate and the fluorescent signal was read. For the agonist detection of the compounds, the data was exported by the “Max-Min”, “Read 1 to 90” method in the software. For the antagonist detection of the compound, the data was exported by the “Max-Min”, “Read 90 to Maximum allowed” method in the software. Data were analyzed by GraphPad Prism 5.0 and the IC50 values of the test compounds were calculated.

[2] = Pharmacokinetics in female Balb/c mice; assay type: in vivo; details: mouse, plasma, single intravenous injection / single oral administration; for bioavailability: read-out: Bioavailability F; for AUC: read-out: Concentration integral AUC; for half-life: read-out: Half-life T1/2 (converted)
Method: Objective: To test the pharmacokinetics of compounds in female Balb/c mice in vivo
Balb/c mice (female, 15-30 g, 7-9 weeks old, Shanghai Lingchang)
The pharmacokinetics profile of the compounds in rodent after intravenous injection and oral administrations was tested using a standard protocol. In the assay, the candidate compound was formulated into a clear solution and administrated to the mice through a single intravenous injection, and formulated into a uniform suspension and administrated to the mice through a single oral administration. […] The whole blood samples were collected within 24 hours, centrifuged at 3000 g at 4° C. for 15 minutes, and plasma samples were obtained by separating the supernatant. 20 times volume of acetonitrile solution containing an internal standard was added to precipitate proteins. After centrifugation, the supernatant was collected, to which an equal volume of water was added, and further centrifuged to collect the supernatant. The LC-MS/MS method was used to quantitatively analyze the plasma concentration, and the pharmacokinetics parameters, such as peak concentration, peak time, clearance rate, half-life, area under the curve, and bioavailability were calculated.

T1 sequence (P29274 whole entry): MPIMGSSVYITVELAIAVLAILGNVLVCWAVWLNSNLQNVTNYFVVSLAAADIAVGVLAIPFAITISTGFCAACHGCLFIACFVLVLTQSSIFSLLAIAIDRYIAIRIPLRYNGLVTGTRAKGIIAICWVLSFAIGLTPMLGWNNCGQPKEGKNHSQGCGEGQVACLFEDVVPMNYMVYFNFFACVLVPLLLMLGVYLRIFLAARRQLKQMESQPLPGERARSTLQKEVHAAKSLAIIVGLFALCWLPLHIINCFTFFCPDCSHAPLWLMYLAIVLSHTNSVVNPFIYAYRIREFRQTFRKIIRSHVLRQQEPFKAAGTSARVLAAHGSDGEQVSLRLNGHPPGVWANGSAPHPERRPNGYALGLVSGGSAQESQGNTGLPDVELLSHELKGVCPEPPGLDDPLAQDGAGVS

| SMILES | IC50 [1] [nM] | other results |
| --- | --- | --- |
| Cc1cc(-c2c(-c3ccccc3)nc(N)n3nc(C(F)(F)F)nc23)cc(C(F)(F)F)n1 [Example C-1] | 1.65 | clearance [2]: 11.7 mL/min/kg; bioavailability [2]: 40.5%; AUC [2]: 13.2 µM·h; half-life [2]: 3.95 h |
| Cc1cc(-c2c(-c3cccc(F)c3)nc(N)n3ncnc23)cc(C(F)(F)F)n1 [Example A-2] | 0.38 | clearance [2]: 44.9 mL/min/kg; bioavailability [2]: 62.1%; AUC [2]: 5.93 µM·h; half-life [2]: 0.8 h |
| Cc1cc(-c2c(-c3ccc(F)cc3)nc(N)n3nc(C(F)(F)F)nc23)cc(C)n1 [Example C-57] | 4.49 | clearance [2]: 3.94 mL/min/kg; bioavailability [2]: 69.3%; AUC [2]: 71.7 µM·h; half-life [2]: 3.2 h |
| Cc1cc(-c2c(-c3ccccc3)nc(N)n3nc(C(F)(F)F)nc23)cc(C)n1 [Example C-2] | 2.97 | clearance [2]: 8.76 mL/min/kg; bioavailability [2]: 50.4%; AUC [2]: 24.9 µM·h; half-life [2]: 2 h |
| CC(C)c1cc(-c2c(-c3ccccc3)nc(N)n3ncnc23)cc(C(F)(F)F)n1 [Example B-34] | 19 |  |
| Cc1cc(-c2c(-c3ccc(F)cc3F)nc(N)n3nc(C)nc23)cc(C(F)(F)F)n1 [Example C-51] | 13.6 |  |
| Cc1cc(-c2c(-c3ccn(C)n3)nc(N)n3nc(C(F)(F)F)nc23)cc(C(F)(F)F)n1 [Example C-63] | 7.22 |  |
| CCc1nc2c(-c3ccc4nn[nH]c4c3)c(-c3ccc(F)cc3F)nc(N)n2n1 [Example C-38] | 15.3 |  |
| Cc1cc(-c2c(-c3ccc(C)o3)nc(N)n3nc(CO[C@H]4CCOC4)nc23)cc(C(F)(F)F)n1 [Example C-72] | 0.16 |  |
| Nc1nc(-c2ccccc2)c(-c2ccc3[nH]nnc3c2)c2nc(C3CC3)nn12 [Example C-26] | 4.34 |  |
| Cc1cc(-c2c(-c3cccnc3)nc(N)n3ncnc23)cc(C(F)(F)F)n1 [Example A-12] | 11.4 |  |
| Cc1cc(-c2c(-c3ccc(F)cc3)nc(N)n3nc(C#N)nc23)cc(Cl)n1 [Example C-73] | 1.73 |  |
| Nc1nc(-c2ccccc2)c(-c2ccc3c(c2)CC(=O)N3)c2ncnn12 [Example B-20] | 71.3 |  |
| Cc1cc(-c2c(-c3ccco3)nc(N)n3ncnc23)cc(C(F)(F)F)n1 [Example A-19] | 1.16 |  |
| CCc1nc2c(-c3ccc4[nH]nnc4c3)c(-c3ccccc3)nc(N)n2n1 [Example C-25] | 3.16 |  |
| Cc1cc(-c2c(-c3ccccc3Cl)nc(N)n3ncnc23)cc(C)n1 [Example A-28] | 37.4 |  |
| Cc1cc(-c2c(-c3ccc(F)cc3F)nc(N)n3ncnc23)cc(C(F)(F)F)n1 [Example A-25] | 1.14 |  |
| COc1cc(F)ccc1-c1nc(N)n2ncnc2c1-c1cc(C)nc(C(F)(F)F)c1 [Example A-23] | 1.15 |  |
| Cc1nc2c(-c3ccc4[nH]nnc4c3)c(-c3ccc(F)cc3)nc(N)n2n1 [Example C-59] | 9.95 |  |
| Cc1cc(-c2c(-c3ccccc3)nc(N)n3nc(C)nc23)cc(Cl)n1 [Example C-21] | 0.8 |  |
| COc1ccccc1-c1nc(N)n2nc(CO)nc2c1-c1cc(C)nc(C(F)(F)F)c1 [Example C-50] | 5.36 |  |
| Nc1nc(-c2ccccc2)c(-c2cc(C(F)(F)F)c3[nH]ncc3c2)c2ncnn12 [Example B-14] | 0.47 |  |
| COc1ccccc1-c1nc(N)n2nc(C)nc2c1-c1cc(C)nc(C(F)(F)F)c1 [Example C-27] | 4.93 |  |
| COCCOCc1nc2c(-c3cc(C)nc(C(F)(F)F)c3)c(-c3ccc(F)cc3)nc(N)n2n1 [Example C-68] | 0.64 |  |
| COc1ccc(F)cc1-c1nc(N)n2ncnc2c1-c1cc(Cl)nc(C(F)(F)F)c1 [Example A-32] | 1.21 |  |
